Tested on: calcium level in the serum
Assay: Experiment 3: effects of various sucrose fatty acid esters on serum calcium reduction
Assay type: in vivo, Wistar rats
Settings: for Reduction rate (%) of calcium level in the serum: rats
Protocol: An intravaginal suppository was administered into the rat's vagina, and the blood was collected periodically (2, 4 and 6 hours after administration of the test preparation).
The serum was separated, and the calcium level in the serum was determined by using a kit for determination of calcium (Calcium C Test Wako; manufactured by Wako Pure Chemical Industries, Ltd.) (n=3).
In the same manner, there were prepared various sucrose fatty acid esters having the same HLB value but being combined with a different fatty acid (Table B), and four kinds of intravaginal suppositories for rats were prepared by using each 100 mg of sucrose fatty acid ester.
In the same manner as in Experiment 1, each intravaginal suppository was administered to the rat's vagina, and the blood was collected periodically 2, 4 and 6 hours after administration of intravaginal suppository), and the calcium level in the serum thereof was determined (n=4).

## Human calcitonin
Ryoto-Sugar Ester (L-1695), HLB 16, lauric acid, + citric acid, intravaginal suppository 20 μg, 2 hr
  Reduction rate (%) of calcium level in the serum: 12.8%
Ryoto-Sugar Ester (L-1695), HLB 16, lauric acid, + citric acid, intravaginal suppository 20 μg, 4 hr
  Reduction rate (%) of calcium level in the serum: 13.4%
Ryoto-Sugar Ester (L-1695), HLB 16, lauric acid, + citric acid, intravaginal suppository 20 μg, 6 hr
  Reduction rate (%) of calcium level in the serum: 11.4%
Ryoto-Sugar Ester (S-370), HLB 3, stearic acid, + citric acid, intravaginal suppository 20 μg, 2 hr
  Reduction rate (%) of calcium level in the serum: 13.4%
Ryoto-Sugar Ester (S-370), HLB 3, stearic acid, + citric acid, intravaginal suppository 20 μg, 4 hr
  Reduction rate (%) of calcium level in the serum: 18.2%
Ryoto-Sugar Ester (S-370), HLB 3, stearic acid, + citric acid, intravaginal suppository 20 μg, 6 hr
  Reduction rate (%) of calcium level in the serum: 11.4%
Ryoto-Sugar Ester (S-570), HLB 5, stearic acid, + citric acid, intravaginal suppository 20 μg, 2 hr
  Reduction rate (%) of calcium level in the serum: 12.8%
Ryoto-Sugar Ester (S-570), HLB 5, stearic acid, + citric acid, intravaginal suppository 20 μg, 4 hr
  Reduction rate (%) of calcium level in the serum: 17.2%
Ryoto-Sugar Ester (S-570), HLB 5, stearic acid, + citric acid, intravaginal suppository 20 μg, 6 hr
  Reduction rate (%) of calcium level in the serum: 12.0%
Ryoto-Sugar Ester (S-770), HLB 7, stearic acid, + citric acid, intravaginal suppository 20 μg, 2 hr
  Reduction rate (%) of calcium level in the serum: 13.6%
Ryoto-Sugar Ester (S-770), HLB 7, stearic acid, + citric acid, intravaginal suppository 20 μg, 4 hr
  Reduction rate (%) of calcium level in the serum: 14.8%
Ryoto-Sugar Ester (S-770), HLB 7, stearic acid, + citric acid, intravaginal suppository 20 μg, 6 hr
  Reduction rate (%) of calcium level in the serum: 11.8%
Ryoto-Sugar Ester (S-970), HLB 9, stearic acid, + citric acid (Table 3), intravaginal suppository 20 μg, 2 hr
  Reduction rate (%) of calcium level in the serum: 12.2%
Ryoto-Sugar Ester (S-970), HLB 9, stearic acid, + citric acid (Table 3), intravaginal suppository 20 μg, 4 hr
  Reduction rate (%) of calcium level in the serum: 17.4%
Ryoto-Sugar Ester (S-970), HLB 9, stearic acid, + citric acid (Table 3), intravaginal suppository 20 μg, 6 hr
  Reduction rate (%) of calcium level in the serum: 11.8%
Ryoto-Sugar Ester (S-1670), HLB 16, stearic acid, + citric acid, intravaginal suppository 20 μg, 2 hr
  Reduction rate (%) of calcium level in the serum: 11.4%
Ryoto-Sugar Ester (S-1670), HLB 16, stearic acid, + citric acid, intravaginal suppository 20 μg, 4 hr
  Reduction rate (%) of calcium level in the serum: 16.4%
Ryoto-Sugar Ester (S-1670), HLB 16, stearic acid, + citric acid, intravaginal suppository 20 μg, 6 hr
  Reduction rate (%) of calcium level in the serum: 12.6%
Ryoto-Sugar Ester L-595 + L-1695 3:2, HLB 9, lauric acid, + citric acid, intravaginal suppository, 2 hr
  Reduction rate (%) of calcium level in the serum: 11.0%
Ryoto-Sugar Ester L-595 + L-1695 3:2, HLB 9, lauric acid, + citric acid, intravaginal suppository, 4 hr
  Reduction rate (%) of calcium level in the serum: 14.4%
Ryoto-Sugar Ester L-595 + L-1695 3:2, HLB 9, lauric acid, + citric acid, intravaginal suppository, 6 hr
  Reduction rate (%) of calcium level in the serum: 9.7%
Ryoto-Sugar Ester P-070 + P-1670 4:5, HLB 9, palmitic acid, + citric acid, intravaginal suppository, 2 hr
  Reduction rate (%) of calcium level in the serum: 8.2%
Ryoto-Sugar Ester P-070 + P-1670 4:5, HLB 9, palmitic acid, + citric acid, intravaginal suppository, 4 hr
  Reduction rate (%) of calcium level in the serum: 17.3%
Ryoto-Sugar Ester P-070 + P-1670 4:5, HLB 9, palmitic acid, + citric acid, intravaginal suppository, 6 hr
  Reduction rate (%) of calcium level in the serum: 13.8%
Ryoto-Sugar Ester S-370 + S-1670 5:6, HLB 9, stearic acid, + citric acid, intravaginal suppository, 2 hr
  Reduction rate (%) of calcium level in the serum: 6.9%
Ryoto-Sugar Ester S-370 + S-1670 5:6, HLB 9, stearic acid, + citric acid, intravaginal suppository, 4 hr
  Reduction rate (%) of calcium level in the serum: 15.3%
Ryoto-Sugar Ester S-370 + S-1670 5:6, HLB 9, stearic acid, + citric acid, intravaginal suppository, 6 hr
  Reduction rate (%) of calcium level in the serum: 12.3%
Ryoto-Sugar Ester S-970 1:0 (control of Table B), HLB 9, stearic acid, + citric acid (Table 4), intravaginal suppository, 2 hr
  Reduction rate (%) of calcium level in the serum: 6.3%
Ryoto-Sugar Ester S-970 1:0 (control of Table B), HLB 9, stearic acid, + citric acid (Table 4), intravaginal suppository, 4 hr
  Reduction rate (%) of calcium level in the serum: 11.6%
Ryoto-Sugar Ester S-970 1:0 (control of Table B), HLB 9, stearic acid, + citric acid (Table 4), intravaginal suppository, 6 hr
  Reduction rate (%) of calcium level in the serum: 11.0%
Combination of sucrose fatty acid ester and citric acid, esters of different HLB value and fatty acid
  promotion effects on absorption of calcitonin: not affected by either the HLB value of the sucrose fatty acid ester to be used or by the kinds of the fatty acids to be combined
